# Reference: PMC9321339, “Characterization in Inhibitory Effectiveness of Carbamazepine in Voltage-Gated Na^+ and Erg-Mediated K^+ Currents in a Mouse Neural Crest-Derived (Neuro-2a) Cell Line” (International Journal of Molecular Sciences, 2022)
# Like-named read-outs stand apart in the source and are kept apart here.
# Tested on: T1, voltage-gated Na+ (NaV) channels / INa in Neuro-2a cells (mainly NaV1.2, 1.3, 1.4 and 1.7)
# T1 construct: gene Scn2a
# Assay type: cell-based
# Conditions: step -100 to -10 mV, 30 ms, Ca2+-free Tyrode with 10 mM TEA, 0.5 mM CdCl2, 20-25 °C
compound,measurement,setting,value
"NC(=O)N1c2ccccc2C=Cc2ccccc21 [Carbamazepine, 5H-dibenzo[b,f]azepine-5-carboxamide]",IC50,late (sustained) INa(L),18 µM
same,IC50,peak (transient) INa(T),56 µM
